No end group written: not given here.
Test system: CD8+ T cytotoxic cells
Assay: Cytokine response by multiplex xMAP, CD8+ T cytotoxic cells
Format: cell-based, human
Details: 2 µM, 24 h
Description: Colorectal adenocarcinoma Caco-2 cell line (ATCC HTB-37) was cultured in complete DMEM/F12 (1:1) medium containing 10% fetal bovine serum (FBS, Gibco) and 1X antibiotic-antimycotic solution (1XAAS, Invitrogen, Waltham, MA, USA). The acute monocytic leukemia THP-1 line (ATCC TIB-202) was cultured in complete RPMI-1640 medium, containing 10% FBS, 1XAAS, and […]. THP-1 cells were differentiated into pro-inflammatory macrophages (Mφ1) with phorbol 12-myristate 13-acetate (Sigma-Aldrich) for 24 h and subsequently polarized with lipopolysaccharide from E. coli (Sigma-Aldrich) and rhIFN-γ (Sigma-Aldrich) for another 48 h according to previously reported protocol. All cells were cultured in a humidified CO2 incubator (5% CO2, 37 °C). Primary peripheral blood mononuclear cells (PBMCs) collected from a healthy donor were purchased from American Type Culture Collection (ATCC PCS-800-011). CD4^+ T-helper and CD8^+ T cytotoxic cells were isolated from PBMCs by magnetic separation with mouse anti-human CD4-PE (clone 13B8.2, Beckman Coulter Diagnostics, Pasadena, CA, USA) and CD8-PE (clone REA734, Miltenyi Biotec, Bergisch Gladbach, Germany), Anti-PE MicroBeads (Miltenyi Biotec), and LS Separation Columns (Miltenyi Biotec). Isolated CD4^+ and CD8^+ cells were expanded separately with Dynabeads™ Human T-Expander CD3/CD28 (Gibco, Waltham, MA, USA) in RPMI-1640 supplemented with 10% FBS, 1XAAS and 100 U/mL rh-IL-2 (Gibco). Regulatory CD4^+ FoxP3^+ T cells (Tregs) were isolated from PBMCs by magnetic separation with CD4^+CD25^+ Regulatory T Cell Isolation Kit, human (Miltenyi Biotec). Primary CD14^+ blood monocytes were isolated from PBMCs by adherence according to standard technique. Monocyte-derived mature dendritic cells (moDCs) were obtained from CD14^+ blood monocytes according to the previously reported protocol. Briefly, blood monocytes were incubated in complete RPMI-1640 medium, containing 10% FBS, 1XAAS, 800 U/mL rhGM-CSF (Sci-Store, Russia, Moscow) and 500 U/mL rhIL-4 (Sci-Store) for 3 days. Fresh complete RPMI-1640 medium with rhGM-CSF and rhIL-4 was added to the culture on day 3. On day 5, fresh complete RPMI-1640 containing 100 U/mL rhTNF-α (Sigma) as well as 800 U/mL rhGM-CSF and 500 U/mL rhIL-4 was added and the culture was incubated for another 4 days until full maturation.
Caco-2 cells were seeded into the wells of a 48-well plate, coated with 0.1% bovine collagen (Sigma-Aldrich) for 24 h, 3 weeks before the experiment with complete DMEM/F12 (1:1) medium renewal every 2–3 days. Monocytes, moDCs, CD4^+ T-helper and CD8^+ T cytotoxic cells, Mφ1, and Regulatory CD4^+ FoxP3^+ T cells were seeded into the wells of 48-well plates in the complete RPMI-1640 medium supplemented with 10% Human AB serum (HABS, Capricorn Scientific, Ebsdorfergrund, Germany) and 1XAAS 24 h prior to the experiment; medium in Caco-2-containing wells was also replaced with the same medium. After 24 h, half of the medium in each well was replaced by fresh complete RPMI-1640 medium with 10% HABS, supplemented with 4 µM of Lc-def for the sample wells or fresh medium alone for the control wells. Cell cultures were kept in CO2-incubator (5% CO2, 37 °C) for another 24 h. Culture supernatants were collected 24 h later and stored at −70 °C degrees less than one month prior to the analytes assessment. […]

**Q.** Which results are given for “Lc-def: defensin from lentil Lens culinaris seeds (UniProt:B3F051), recombinant, overexpressed in Escherichia coli (KTCENLSDSFKGPCIPDGNCNKHCKEKEHLLSGRCRDDFRCWCTRNC; disulfide (positions not given here); ends not checked; also: disulfide bonds present, pairing not given here; UniProt B3F051 28-74, looked up)”?
**A.** EGF: <1.95↓ pg/ml; Eotaxin: <3.23↓ pg/ml; FGF-2: 0 pg/mL; FLT-3L: <0.45↓ pg/ml; Fractalkine: <23.19↓ pg/ml; G-CSF: <2.57↓ pg/ml; GM-CSF: <1.36↓ pg/ml; GROa: <0.67↓ pg/ml; IFNa2: <4.43↓ pg/ml; IFNg: <1.99↓ pg/ml; IL-1RA: <0.83↓ pg/ml; IL-1a: 9 pg/mL; IL-1b: <18.72↓ pg/ml; IL-2: <0.31↓ pg/ml; IL-3: <0.48↓ pg/ml; IL-4: <0.31↓ pg/ml; IL-5: 9.01 pg/mL; IL-6: <0.30↓ pg/ml; IL-7: <0.33↓ pg/ml; IL-8: <0.49↓ pg/ml; IL-9: <1.05↓ pg/ml; IL-10: <0.68↓ pg/ml; IL-12 (p40): <3.02↓ pg/ml; IL-12 (p70): <1.48↓ pg/ml; IL-13: <5.00↓ pg/ml; IL-15: <1.45↓ pg/ml; IL-17A: <1.55↓ pg/ml; IL-17E/IL-25: <20.59↓ pg/ml; IL-17F: <16.96↓ pg/ml; IL-18: <0.35↓ pg/ml; IL-22: <8.31↓ pg/ml; IL-27: <8.55↓ pg/ml; IP-10: <1.56↓ pg/ml; M-GSF: <23.75↓ pg/ml; MCP-1: <1.52↓ pg/ml; MCP-3: <3.95↓ pg/ml; MDC: <0.35↓ pg/ml; MIG: <3.43↓ pg/ml; MIP-1a: <1.76↓ pg/ml; MIP-1b: <1.92↓ pg/ml; PDGF-AA: <7.38↓ pg/ml; PDGF-AB/BB: <9.75↓ pg/ml; RANTES: 366.74 pg/mL; TGF-a: <0.66↓ pg/ml; TNFa: <3.91↓ pg/ml; TNFb: <0.73↓ pg/ml; VEGFa: <1.27↓ pg/ml; effects on cytokine production: No effects; sCD40L: <6.66↓ pg/ml

From paper PMC9503459, “Antifungal Activity, Structural Stability, and Immunomodulatory Effects on Human Immune Cells of Defensin from the Lentil Lens culinaris” (Membranes, 2022)
